# In patent US20090318551A1, “USES OF ANALOGS OF 3-O-ACETYL-11-KETO-BETA-BOSWELLIC ACID” (priority 2004, published 2009):
# Where a name gives a salt, the structure may show the parent alone.
# Experiments:
# 5-Lipoxygenase = assay: 5-Lox assay (colorimetric, ferric xylenol orange); assay type: biochemical; details: linoleic acid substrate, pH 6.3; for % inhibition @ 100 μM: 100 μM test substance; for % inhibition @ 250 μM: 250 μM test substance
# Procedure: The AKBA analogs were screened for their 5-Lipoxygenase inhibitory potential using colorimetric method of Craig A. Gay et al (Anal Biochem., 304, 42 46, 2002). The assay mixture contained 50 mM phosphate buffer pH 6.3, 5-Lipoxygenase, various concentrations of test substances and linoleic acid in a total volume of 0.5 mL after 5 min incubation of above reaction mixture 0.5 ml ferric xylenol orange reagent was added and OD was measured after two minutes at 585 nm using spectrophotometer (varian). Controls were run along with test in a similar manner except using vehicle instead of test substance solution. Percent inhibition was calculated by comparing absorbance of test with that of control
# 5-LO = biological target: T1, 5-LO (Homo sapiens, UniProt P09917); details: compared with the six boswellic acids; cited from earlier work
# T1 sequence (P09917 1-674): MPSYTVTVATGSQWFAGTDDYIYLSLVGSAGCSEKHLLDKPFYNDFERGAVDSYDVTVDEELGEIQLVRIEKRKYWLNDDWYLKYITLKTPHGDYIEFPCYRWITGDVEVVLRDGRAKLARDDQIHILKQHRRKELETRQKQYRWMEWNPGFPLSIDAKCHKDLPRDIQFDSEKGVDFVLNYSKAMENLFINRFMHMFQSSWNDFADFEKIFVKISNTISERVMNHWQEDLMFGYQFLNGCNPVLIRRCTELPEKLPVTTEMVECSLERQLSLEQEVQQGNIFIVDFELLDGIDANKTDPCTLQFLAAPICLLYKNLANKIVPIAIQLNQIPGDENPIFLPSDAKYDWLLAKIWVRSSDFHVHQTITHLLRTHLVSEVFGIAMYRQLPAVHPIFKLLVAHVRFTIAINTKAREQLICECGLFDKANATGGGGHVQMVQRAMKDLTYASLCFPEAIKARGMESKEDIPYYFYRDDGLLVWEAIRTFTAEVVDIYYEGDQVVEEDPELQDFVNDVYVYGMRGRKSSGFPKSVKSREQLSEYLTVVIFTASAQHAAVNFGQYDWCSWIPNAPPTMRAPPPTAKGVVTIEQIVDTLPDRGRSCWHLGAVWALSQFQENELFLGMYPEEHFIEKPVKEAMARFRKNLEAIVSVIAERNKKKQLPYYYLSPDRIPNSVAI
# Artemia salina = assay: Brine shrimp lethality (BSL) assay; assay type: in vivo; details: nauplii, viability/mortality after 24 hr; for LC50: Artemia salina, read-out: LD50 in mcM
# Text: Brine shrimp lethality (BSL) assay is a simple bench top bioassay developed by McLaughlin, et. al. (Studies in Natural Product Chemistry, 9, page 383, 1991 and Am. Chem. Soc. Symp. Series, 534, page 114, 1992) and the results obtained by this assay have been reported to be corroborative with the cytotoxicities determined in 9KB and 9PS cells. The procedure involves hatching Artemia salina cysts in a cone shaped vessel and collecting active nauplii after 48 hr and treating with known concentrations of test substances and vehicle (control) in tubes each tube containing 10 nauplii and checking viability/mortality after 24 hr. Percentage lethality was calculated by comparing mean values of control and test sets of three tubes each. LC50 values were obtained from the graph plotted micro molar concentration against percent lethality.
Compound,% inhibition @ 100 μM (5-Lipoxygenase),% inhibition @ 250 μM (5-Lipoxygenase),inhibitory activity against 5-LO (in words) (5-LO),LD50 in mcM (Artemia salina),LC50 (Artemia salina)
"3-O-Acetyl-11-keto-β-boswellic acid [Compound B2, reference compound]",18.7%,31%,most pronounced inhibitory activity against 5-LO,5.5 mcM,
"CC1CCC2(C)CCC3(C)C(=CC(=O)C4C5(C)CCC(OC=O)C(C)(C(=O)O)C5CCC43C)C2C1C (stereo not drawn) [Compound 1, 3-O-Formyl-11-keto-β-boswellic acid]",,5.5%,,55.0 mcM,
"C[C@@H]1CC[C@]2(C)CC[C@]3(C)C(=CC(=O)C4[C@@]5(C)CCC(OC(=O)CCl)[C@](C)(C(=O)O)C5CC[C@]43C)C2[C@H]1C (stereo partly drawn) [Compound 2, 3-O-(Chloroacetyl)-11-keto-β-boswellic acid]",,3.12%,,,98 µM
"COc1cc(C(=O)O[C@@H]2CC[C@@]3(C)C(CC[C@]4(C)C3C(=O)C=C3C5[C@@H](C)[C@H](C)CC[C@]5(C)CC[C@]34C)[C@@]2(C)C(=O)O)cc(O)c1O (stereo partly drawn) [Compound 3, 3-O-(5′-O-methylgalloyl)-11-keto-β-boswellic acid]",27.4%,,,,33 µM
"CC1CCC2(C)CCC3(C)C(=CC(=O)C4C5(C)CCC(OC(=O)CCC(=O)O)C(C)(C(=O)O)C5CCC43C)C2C1C (stereo not drawn) [Compound 4, 3-O -Succinyl-11-keto-β-boswellic acid]",,41.1%,,69.0 mcM,
"CC1CCC2(C)CCC3(C)C(=CC(=O)C4C5(C)CCC(OC(=O)C=Cc6ccc(O)cc6)C(C)(C(=O)O)C5CCC43C)C2C1C (stereo not drawn) [Compound 6, 3-O-[4′-Hydroxycinnamoyl]-11-keto-β-boswellic acid]",,11.3%,,6.0 mcM,
"COc1ccc(C=CC(=O)OC2CCC3(C)C(CCC4(C)C3C(=O)C=C3C5C(C)C(C)CCC5(C)CCC34C)C2(C)C(=O)O)cc1OC (stereo not drawn) [Compound 7, 3-O -(3′,4′-dimethoxycinnamoyl)-11-keto-β-boswellic acid]",,17.8%,,6.2 mcM,
"COc1cc(C=CC(=O)OC2CCC3(C)C(CCC4(C)C3C(=O)C=C3C5C(C)C(C)CCC5(C)CCC34C)C2(C)C(=O)O)cc(O)c1O (stereo not drawn) [Compound 8, 3-O-(3′,4′-Dihydroxy-5′-methoxycinnamoyl)-11-keto-β-boswellic acid]",,8.1%,,12.0 mcM,
"COC(=O)C1(C)C(OC(=O)CNC(=O)OC(C)(C)C)CCC2(C)C1CCC1(C)C2C(=O)C=C2C3C(C)C(C)CCC3(C)CCC21C (stereo not drawn) [Compound 9, Methyl 3-O-(N-Boc-glycyl)-11-keto-β-boswellate]",,16.7%,,>100 mcM,
"C[C@@H]1CC[C@]2(C)CC[C@]3(C)C(=CC(=O)C4[C@@]5(C)CC[C@@H](OC(=O)CN)[C@](C)(C(=O)O)C5CC[C@]43C)C2[C@H]1C (stereo partly drawn) [Compound 10, 3-O-Glycyl-11-keto-β-boswellic acid hydrochloride]",23.9%,,,12.0 mcM,
"C[C@H](N)C(=O)O[C@@H]1CC[C@@]2(C)C(CC[C@]3(C)C2C(=O)C=C2C4[C@@H](C)[C@H](C)CC[C@]4(C)CC[C@]23C)[C@@]1(C)C(=O)O (stereo partly drawn) [Compound 11, 3-O-Alanyl-11-keto-β-boswellic acid hydrochloride]",33.6%,,,29.0 mcM,
"COC(=O)[C@]1(C)C2CC[C@]3(C)C(C(=O)C=C4C5[C@@H](C)[C@H](C)CC[C@]5(C)CC[C@]43C)[C@@]2(C)CC[C@@H]1O (stereo partly drawn) [Compound 12, Methyl 3β-hydroxy-11-ketours-12-en-24-oate]",,0.37%,,,> 100 µM
"COC(=O)[C@]1(C)C2CC[C@]3(C)C(C(=O)C=C4C5[C@@H](C)[C@H](C)CC[C@]5(C)CC[C@]43C)[C@@]2(C)CC[C@@H]1Br (stereo partly drawn) [Compound 13, Methyl 3β-bromo-11-ketours-12-en-24-oate]",,17.6%,,,> 100 µM
"COC(=O)[C@@]1(C)C(C#N)CC[C@@]2(C)C1CC[C@]1(C)C2C(=O)C=C2C3[C@@H](C)[C@H](C)CC[C@]3(C)CC[C@]21C (stereo partly drawn) [Compound 14, Methyl 3α-cyano-11-ketours-12-en-24-oate]",,3.71%,,,> 100 µM
"COC(=O)[C@]1(C)C2CC[C@]3(C)C(C(=O)C=C4C5[C@@H](C)[C@H](C)CC[C@]5(C)CC[C@]43C)[C@@]2(C)CC[C@H]1S (stereo partly drawn) [Compound 15, Methyl 3α-thiohydroxy-11-ketours-12-en-24-oate]",,53.1%,,,5.2 µM
"COC(=O)[C@@]1(C)/C(=N\O)CC[C@@]2(C)C1CC[C@]1(C)C2C(=O)C=C2C3[C@@H](C)[C@H](C)CC[C@]3(C)CC[C@]21C (some centres unmarked) [Compound 16, Methyl 3-oximino-11-ketours-12-en-24-oate]",,41.6%,,,> 100 µM
"CC(=O)OC1CC[C@@]2(C)C(CC[C@]3(C)C2C(=O)C=C2C4[C@@H](C)[C@H](C)CC[C@]4(C)CC[C@]23C)[C@@H]1C (some centres unmarked) [Compound 17, 3-Acetoxy-11-keto-24-norurs-12-ene]",,0%,,,> 100 µM
"CC(=O)OC1CC[C@@]2(C)C(CC[C@]3(C)C2C(=O)C=C2C4[C@@H](C)[C@H](C)CC[C@]4(C)CC[C@]23C)[C@@]1(C)C(=O)OCCN(C)C (stereo partly drawn) [Compound 18, (2′-N,N-Dimethylaminoethyl) 3-O-acetyl-11-keto-β-boswellate]",25.4%,,,,> 100 µM
"CC(=O)OC1CC[C@@]2(C)C(CC[C@]3(C)C2C(=O)C=C2C4[C@@H](C)[C@H](C)CC[C@]4(C)CC[C@]23C)[C@@]1(C)C(N)=O (stereo partly drawn) [Compound 19, 3-O-Acetyl-11-keto-β-boswellic acid amide]",,35.8%,,,4.6 µM
"CC(=O)OC1CC[C@@]2(C)C(CC[C@]3(C)C2C(=O)C=C2C4[C@@H](C)[C@H](C)CC[C@]4(C)CC[C@]23C)[C@@]1(C)C(=O)NN (stereo partly drawn) [Compound 20, N-(3-O-Acetyl-11-keto-β-boswelloyl)-hydrazide]",,54.3%,,,2.3 µM
"CC(=O)OC1CC[C@@]2(C)C(CC[C@]3(C)C2C(=O)C=C2C4[C@@H](C)[C@H](C)CC[C@]4(C)CC[C@]23C)[C@@]1(C)C(=O)NCCN (stereo partly drawn) [Compound 21, N-(3-O-Acetyl-11-keto-β-boswelloyl)-ethylenediamine]",,76.6%,,,71 µM
"CC(=O)OC1CC[C@@]2(C)C(CC[C@]3(C)C2C(=O)C=C2C4[C@@H](C)[C@H](C)CC[C@]4(C)CC[C@]23C)[C@@]1(C)C(=O)NCCO (stereo partly drawn) [Compound 22, N-(3-O-Acetyl-11-keto-β-boswelloyl)-2-aminoethanol]",,10.4%,,,> 100 µM
"CC(=O)OC1CCC2(C)C(CCC3(C)C2C(=O)C=C2C4C(C)C(C)CCC4(C)CCC23C)C1(C)C(=O)N1CCNCC1 (stereo not drawn) [Compound 23, N-(3-O-Acetyl-11-keto-β-boswelloyl)-piperzine]",34.9%,,,0.88 mcM,
"CC(=O)OC1CC[C@@]2(C)C(CC[C@]3(C)C2C(=O)C=C2C4[C@@H](C)[C@H](C)CC[C@]4(C)CC[C@]23C)[C@@]1(C)N=C=O (some centres unmarked) [Compound 24, 3-Acetoxy-11-keto-24-norurs-12-en-4-isocyanate]",,0%,,,> 100 µM
"CC(=O)OC1CC[C@@]2(C)C(CC[C@]3(C)C2C(=O)C=C2C4[C@@H](C)[C@H](C)CC[C@]4(C)CC[C@]23C)[C@@]1(C)N (some centres unmarked) [Compound 25, 3-Acetoxy-4-amino-11-keto-24-norurs-12-ene]",,60.5%,,,6 µM
"CC(=O)OC1CC[C@@]2(C)C(CC[C@]3(C)C2C(=O)C=C2C4[C@@H](C)[C@H](C)CC[C@]4(C)CC[C@]23C)[C@@]1(C)C#N (some centres unmarked) [Compound 26, 3-Acetoxy-4-cyano-11-keto-24-norurs-12-ene]",,9.8%,,,> 100 µM
"C[C@@H]1CC[C@]2(C)CC[C@]3(C)C(=CC(O)C4[C@@]5(C)CC[C@@H](O)[C@](C)(C(=O)O)C5CC[C@]43C)C2[C@H]1C (stereo partly drawn) [Compound 27, 11-Hydroxy-β-boswellic acid]",,12.2%,,,28.3 µM
